Where two headings read alike, the source gives them in different places. Where no end group is shown, it is not given here.
Legend:
[1] = system: caPCNA binding to caPCNA antibody (caPCNAab); assay: Competition ELISA: caPCNA captured by plate-bound caPCNA antibody (caPCNAab), detected with C20 antibody; design: species or system human; settings: increasing amounts of peptide incubated simultaneously with purified caPCNA
Protocol: The wells are washed and then incubated with a goat anti-PCNA antibody (C20) that recognizes the C-terminal 20 amino acids of PCNA. Bound C20 antibody is visualized with an alkaline phosphatase conjugated anti-goat IgG antibody, and bound antibody complex is visualized with […], and quantified by spectrophotometry. The competition experiments shown in this study involve the simultaneous incubation of the ca(cs)PCNA with increasing amounts of the antigenic peptide fragment of caPCNA (referred to as B1 or the PCNA aa126-133 peptide) in this assay.
The assay described in FIG. 5 was used to test the specificity of the antibody combining site for the epitope defined by PCNA aa126-133 (FIG. 6). The ELISA assay was performed as described in aim 1, however, either the B1 peptide or a peptide sequence (H-Ser-Ala-Cys-Glu-Gln-IIe-Leu-Lys-Asp-Thr-OH) (SEQ ID NO: 28) taken from within the yeast myosin protein was used to compete for the antibody in the presence of purified caPCNA.
The ELISA described herein was used to monitor the ability of two peptides to disrupt caPCNA binding to the bound caPCNA antibody. One peptide (H-[…]OH) (SEQ ID NO: 29) corresponding to the p21cip/waf1 proteins site of interaction with PCNA was evaluated in this assay, and is shown to have no effect on the binding of caPCNA to the bound caPCNA antibody in this ELISA assay (FIG. 7). […] Therefore, the XPG peptide interacts with its recognized PCNA binding site in order to block binding of the PCNA protein to the caPCNA antibody. This happens if the epitope recognized by the antibody was masked by specifically binding this XPG peptide.

U937 leukemia cells = assay: Cytotoxicity in U937 leukemia cell cultures, liposome-mediated peptide transfer, flow cytometry with propidium iodide and annexin V; type: cell-based
Source text: Peptide fragments derived from the protein Proliferating Cell Nuclear Antigen (PCNA) are identified herein that have the ability to act, in conjunction with DNA damaging agents (e.g., doxorubicin), to enhance the therapeutic effects of such agents to treat a variety of cancer cells. The peptides are derived from the amino acid sequence within PCNA, for example, encompassing amino acids 126-133. This sequence appears to be uniquely exposed in cancer cells, but not non-cancer cells. By preventing PCNA-binding proteins, including XPG, from binding directly to caPCNA in cancer cells the effects of chemotherapeutic drugs including DNA damaging agents are enhanced. […] Exponentially growing U937 leukemia cell cultures in tissue culture media were used. A liposome mediated protein transfer technique was used wherein the caPCNA peptide (126-133) and doxorubicin were encapsulated in liposomes and added to the cell cultures at 10 μM. […] This approach produced over a 50% killing of the cultured cells within 24 hours that was peptide/drug specific, and not due to liposome mediated cytotoxicity.
As a positive control, these leukemia cells were also incubated for several hours (either 4 or 24 hours) with a peptide derived from the p21waf protein, and as a negative control, a peptide derived from the yeast myosin protein. […] Cell killing vs. cell damage was assessed by flow cytometry using propidium iodide and annexin V staining.

breast cancer cells = assay: Flow-cytometric analysis of breast cancer cells treated with peptide-containing liposomes (propidium iodide / annexin V); type: cell-based
Protocol: Exponentially growing breast cancer cells were grown in culture media to 50% of confluence (FIG. 1). The media was then changed and liposomes that were prepared from transfection reagent (PJR) were incubated with the cells in fresh media for an additional 24 hours prior to performing flow-cytometric analysis of the treated cells.
Liposomes contained either the carboxyl region of the p21waf1 protein, and/or the caPCNA antigenic site peptide (LGIPEQEY) (SEQ ID NO: 1). After 24 hours, the cells were stained with propidium iodide and fluorescently labeled annexin V antibody. Healthy growing cells were not permeable to the antibody as shown in lower left panel of FIG. 1, while permeabilized healthy cells susceptible to the transfection reagent, but still growing, were stained with propidium iodide. Cells staining with the annexin V antibody indicate some level of damage associated with the induction of apoptotic cells (lower right quadrant, FIG. 1), and/or cells that had died from either apoptosis or necrosis (upper right quadrant, FIG. 1). […] Cells treated with only the transfection reagent slightly affected the condition of the cells and lead to a slight increase in the number of apoptotic and necrotic cells. […] In addition, approximately 5-7% of the remaining cells appeared to be undergoing apoptosis and was slated to die.

caPCNA = biological target: T1, caPCNA (Homo sapiens, UniProt P12004); assay: XPG-GST fusion protein immunoprecipitation of PCNA isoforms from MCF7 cell extract, 2D-PAGE Western blot; type: binding; settings: 30 μg MCF7 cell extract, 2 h incubation, glutathione agarose beads
T1 construct: precipitate caPCNA selectively from the MCF7 breast cancer cell extract; endogenous in cells; host or cells: MCF7 cell extract (XPG-GST partner expressed in bacteria)
T1 sequence (P12004 whole entry, the tested form may be a part, canonical isoform): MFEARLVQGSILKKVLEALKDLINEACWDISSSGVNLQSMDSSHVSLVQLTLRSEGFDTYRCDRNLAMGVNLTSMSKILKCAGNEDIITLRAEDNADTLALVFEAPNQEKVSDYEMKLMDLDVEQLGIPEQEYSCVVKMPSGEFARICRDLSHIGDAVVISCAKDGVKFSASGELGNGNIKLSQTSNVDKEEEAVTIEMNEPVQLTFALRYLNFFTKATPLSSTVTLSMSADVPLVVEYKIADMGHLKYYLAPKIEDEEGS
Source text: MCF7 cell (human breast adenocarcinoma cell line) extracts were processed for purification of the synthesome. MCF7 derived synthesome was then subjected to chromatography steps on phosphocellulose, phenyl Sepharose, and Q-Sepharose matrices as described in (Malkas, L. and Hickey, R. (1996) The expression, purification and characterization of DNA polymerases involved in papovavirus replication. In: Methods in Enzymol Vol. 275: Viral Polymerases and Related Proteins, Acad. Press (133-167).). The Q-Sepharose eluted fraction containing both the nmPCNA and caPCNA isoforms was then loaded onto a XPG-GST affinity column. The column was eluted and both the column flow-through and eluate were subjected to 2D-PAGE Western blot analysis using PC10 antibody. The PC10 antibody was used at a dilution of 1:1000 in the Western blot analysis.
caPCNA was specifically immunoprecipitated from a MCF7 cell extract using XPG-GST fusion protein (FIG. 3). Thirty microgram samples of MCF7 cell extract were incubated with XPG-GST fusion protein for two hours, followed by incubation with Glutathione agarose beads for one hour to capture the XPG-GST. The mixture was then centrifuged to collect the beads, and the supernatant and the agarose bead pellet containing the XPG-GST PCNA complex were subjected to 2D-PAGE Western blot analysis. The Western blots were then probed using commercially available PC10 antibody.

cancer cells = assay: Incubation of RYIRS-tagged caPCNA-derived peptide with cancer cells in vitro (DMSO or liposome uptake); type: cell-based; settings: with doxorubicin
Protocol: The peptides disclosed herein are synthesized using standard peptide synthesis procedures and equipments or can be obtained commercially (e.g., United Biochemical Research Co., Seattle, Wash.). […] Uptake of this peptide was initiated by incubation of this peptide with the cancer cells in the presence of dimethyl sulfoxide (DMSO) in either phosphate buffered saline (PBS) or culture media containing 0.2-2% DMSO, without serum for about 4-24 hours. Uptake of this peptide was also efficiently mediated by encapsulation of the peptide in a liposome formulation and subsequent incubation with the cancer cells at 37° C. for about 4-24 hours.

Molecule: H-Gly-Arg-Lys-Arg-Arg-Gln-Thr-Ser-Met-Thr-Asp-Arg-Tyr-His-Ser-Lys-Arg-Arg-Leu-Ile-Phe-Ser-OH (H-GRKRRQTSMTDRYHSKRRLIFS-OH) [p21cip/waf1 peptide (SEQ ID NO: 29)]
- competition with caPCNA for binding to the caPCNA antibody [1]: no effect

Molecule: p21 peptide: peptide derived from the p21waf protein (carboxyl region of p21waf1), positive control (GRKRRQTSMTDRYHSKRRLIFS) [reference compound]
- cell kill (U937 leukemia cells; U937 leukemia cells, absence of doxorubicin, incubation 4 or 24 hours): > 60%
- cytotoxic response (cell killing) (breast cancer cells): induced cell killing

Molecule: XPG-GST fusion protein: 29 amino acid fragment of the XPG protein coupled to Glutathione-S-transferase, expressed in bacteria (LKQLDAQQTQLRIDSFFRLAQQEKEDAKR; also: fused to glutathione-S-transferase)
- selective binding/precipitation of caPCNA versus nmPCNA (caPCNA): recognize and precipitate caPCNA selectively

Molecule: COc1cccc2c1C(=O)c1c(O)c3c(c(O)c1C2=O)C[C@@](O)(C(=O)CO)C[C@@H]3O[C@H]1C[C@H](N)[C@H](O)[C@H](C)O1 [doxorubicin]
- cell killing (breast cancer cells; breast cancer cells, low doses of doxorubicin alone): significant level of cell killing

Molecule: H-Gln-Thr-Gln-Leu-Arg-Ile-Asp-Ser-Phe-Phe-Arg-OH (H-QTQLRIDSFFR-OH) [XPG peptide]
- competition with caPCNA for binding to the caPCNA antibody [1]: effectively competed

Molecule: LGIPEQEYRYIRS [caPCNA-derived peptide (LGIPEQEY)(RYIRS)]
- augmentation of cytotoxic effects of chemotherapeutic agents (cancer cells): augments the cytotoxic effects

Molecule: H-Ser-Ala-Cys-Glu-Gln-IIe-Leu-Lys-Asp-Thr-OH (H-SACEQILKDT-OH) [MAL4]
- competition with caPCNA for binding to the caPCNA antibody [1]: does not compete

Molecule: LGIPEQEY [caPCNA peptide (126-133), LGIPEQEY]
- intrinsic cytotoxicity (U937 leukemia cells; U937 cells, peptide as single agent, liposome encapsulated, 10 μM): intrinsic cytotoxicity
- increase of the cytotoxicity of doxorubicin (U937 leukemia cells; U937 cells, peptide plus a range of concentrations of doxorubicin): approximately 3 fold
- cytotoxic response (cell killing) (breast cancer cells; breast cancer cells, peptide alone in liposomes, 24 hours): strong cytotoxic response
